For 21 molecules, TGI and GI50 results are on record in PubChem BioAssay (NCI).

Several values for one entry are separate records, joined by “and”; a condition that tells them apart may be missing. Equal entries are not always repeated.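 A five-concentration, 48-hour dose response in 96-well plates underlies each endpoint, interpolated linearly between surrounding concentrations. Here, GI50 denotes the concentration required for 50% inhibition of growth. TGI: concentration producing complete growth inhibition.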 Bounds are passed on as bounds.

What all share (assay): NCI tumour cell line growth inhibition, 48 h
Test [1] relates to SNB-75 CNS.
Test [2] relates to MOLT-4 leukemia.
In test [3] the test system is OVCAR-5 ovarian.
Test [4] concerns EKVX NSCLC.
The subject of test [5] is HCT-116 colon.
Test [6] has as its system A549 NSCLC.
Test [7] deals with SW-620 colon.
Test [8] relates to MALME-3M melanoma.
The test system of test [9] is UACC-62 melanoma.
Test [10] concerns TK-10 renal.

For `CC(=O)NC(CCCN)C(=O)NCc1ccccc1` (stereo unspecified), the TGI in [1], in test [2], in test [3], in test [4], in test [5] and in [6] was > 100 µM in each case. The TGI in test [7], in [8], in [9] and in [10] was > 100 µM throughout.
Regarding `CCCCCCCCCCC(O)C1CCC(C2CCC(C(O)CCCCC(O)CCCCCC(O)CC3=CC(C)OC3=O)O2)O1` (stereo unspecified), the GI50 in [1] is > 25 µM; in test [2] it was 2.57 µM; in test [4], > 25 µM; in test [5], 1.04 µM; in test [6], 1.93 µM; in test [7], 3.93 µM. In addition, the GI50 in test [9] was > 25 µM; in test [10], 1.98 µM. In addition, the TGI in test [1], in [2], in test [3], in [4], in test [5] and in test [6] was > 25 µM throughout. Besides, the TGI in test [7] was > 25 µM; in test [8] it was > 25 µM; in test [9], 9.08 µM and > 25 µM; in [10] it was > 25 µM.
For `COc1ccc(OC)c(/C=C/NC=O)c1`, the TGI in [1], in test [2], in test [3], in test [4], in test [5] and in test [6] was > 100 µM throughout. Besides, the TGI in test [7], in test [8], in test [9] and in test [10] was > 100 µM throughout.
In the case of `CN(C)C(=S)SN(C)C(=O)Nc1ccccc1`, the TGI in test [1] was > 92.1 µM; in [2], 85.8 µM; in [3], > 76 µM; in test [4], > 100 µM; in test [5], > 67.4 µM; in test [6] it was > 100 µM. For the same molecule, the TGI in test [7] was 42.6 µM; in [8], 50.3 µM; in [9], 19.1 µM; in [10], > 100 µM.
As to `Cn1cc(-c2csc(-c3cccc(F)c3)n2)c2cccnc21`, the GI50 was 35.7 µM in [1]; 11.7 µM in [2]; 14.8 µM in [3]; 12.5 µM in test [4]; 14.2 µM in test [5]; 20.9 µM in test [6]. Moreover, the GI50 in test [7] was 16.7 µM; in test [8], 17.6 µM; in [9], 13.8 µM; in [10] it was 17.9 µM. The TGI was > 100 µM in test [1]; 34.6 µM in test [2]; 31.5 µM in [3]; 37.6 µM in test [4]; 27.3 µM in [5]; 47.4 µM in [6]. Also, the TGI in [7] was 30.5 µM; in test [8], 45.5 µM; in [9], 27.8 µM; in test [10], 38.1 µM.
`COc1ccc(-c2cc3c(nn2)-c2ccccc2C3=O)cc1`: the GI50 was > 100 µM in test [1]; 32.8 µM in test [2]; > 100 µM in [3]; 70.2 µM in test [5]; > 100 µM in test [6]; 72.7 µM in test [7]. Besides, the GI50 in test [8], in test [9] and in [10] was > 100 µM each time. Moreover, the TGI is > 100 µM in [1]; > 100 µM in test [2]; > 100 µM in test [3]; > 10 µM in [4]; > 100 µM in test [5]; > 100 µM in test [6]. Also, the TGI in test [7], in test [8], in test [9] and in test [10] was > 100 µM in each case.
Turning to `N#C/C(C(=S)Nc1ccccc1)=C1/NN=C2c3ccccc3C(=O)NN21`, the GI50 was 16.6 µM in test [1]; 32.1 µM in test [2]; 56.1 µM in test [3]; 35.3 µM in test [4]; 29.2 µM in test [5]; 34 µM in [6]. The GI50 is 28.7 µM in test [7], 13.9 µM in test [8], 31.5 µM in test [9] and 21.2 µM in [10]. For the same molecule, the TGI was 43.5 µM in [1]; > 100 µM in [2]; > 100 µM in [3]; > 100 µM in [4]; > 100 µM in test [5]; > 100 µM in test [6]. In addition, the TGI in [7] is > 100 µM; in test [8], > 100 µM; in test [9] it was > 100 µM; in test [10] it was 50.4 µM.
For the molecule `O=C(O)c1cc(N=Nc2ccc([As](=O)(O)O)cc2)ccc1O`, the TGI in [1], in test [2], in test [3], in [4], in test [5] and in test [6] was > 100 µM each time. Besides, the TGI in test [7], in test [8], in test [9] and in test [10] was > 100 µM each time.
Turning to `Cc1ccc(C(=O)/C=C/c2ccccc2O)c(C)c1`, the TGI in test [1] was 8.01 µM; in test [2], > 100 µM; in [3], > 100 µM; in test [4], > 100 µM; in test [5], > 100 µM; in [6], > 100 µM. Also, the TGI in [7], in test [8], in test [9] and in [10] was > 100 µM each time.
`NCCCNCCSSCCCCS(=O)O`: the TGI in [1] is > 100 µM; in test [2], 47.1 µM; in [3], > 100 µM; in [4], > 100 µM; in test [5] it was 70.2 µM; in test [6] it was > 100 µM. The TGI in [7] was > 100 µM; in test [8], 49.2 µM; in test [9], 34.8 µM; in test [10], > 100 µM.
As to `NC1C2(CCCCCC2)NC(=O)C12CCCCCC2` (stereo unspecified), the TGI in test [1], in test [2], in test [3], in [4], in [5] and in test [6] was > 100 µM each time. The TGI in test [7], in test [8], in test [9] and in test [10] was > 100 µM in each case.
Turning to `CC(=O)c1ccc(NC(=O)/C(Cc2ccccn2)=N/NC(=O)C[N+](C)(C)C)cc1`, the TGI in test [1], in [2], in [3], in [4], in [5] and in test [6] was > 100 µM each time. The TGI in test [7], in test [8], in [9] and in [10] was > 100 µM each time.
For `CCCNC(=S)N/N=C(\C)c1ccccn1`, the GI50 is 1.5 µM in test [1]; 0.0524 µM in test [2]; 0.529 µM in [3]; 0.119 µM in [4]; < 0.01 µM in [5]; 0.447 µM in [6]. Besides, the GI50 is 0.0498 µM in [7], 2.11 µM in test [8], 0.192 µM in test [9] and 0.71 µM in [10]. For the same molecule, the TGI in [1] is > 25.7 µM; in [2] it was 0.816 µM; in [3], > 100 µM; in [4], > 100 µM; in test [5], > 100 µM; in test [6], > 100 µM. For the same molecule, the TGI is > 100 µM in [7], > 100 µM in [8], 3.28 µM in test [9] and > 100 µM in test [10].
With `CCc1cccc(C)c1NC(C)=O`, the TGI in test [1], in test [2], in test [3], in [4], in test [5] and in [6] was > 100 µM each time. In addition, the TGI in test [7], in test [8], in [9] and in [10] was > 100 µM each time.
Consider `CC[C@H](C)[C@H](NC(=O)[C@H]1CCCCN1C)C(=O)N(C)[C@H](CCc1nc(C(=O)N[C@@H](Cc2ccccc2)C[C@H](C)C(=O)OC)cs1)C(C)C`, for which the GI50 in test [1] was 0.276 µM; in [2], 0.727 µM; in test [3], 1.12 µM; in test [4] it was 1.11 µM; in test [5], 0.118 µM; in test [6], 1.1 µM. Further, the GI50 was 0.213 µM in test [7], 3.71 µM in test [8], 0.0986 µM in [9] and 7.35 µM in test [10]. Moreover, the TGI is 7.65 µM in [1]; > 25 µM in test [2]; > 25 µM in [3]; > 25 µM in test [4]; > 5.35 µM in test [5]; > 25 µM in [6]. Further, the TGI in test [7], in [8], in test [9] and in test [10] was > 25 µM throughout.
`O=C(NC1CCCCCC1)C1C(=O)N(C2CCCCCC2)C(=O)/C1=N\O` (stereo unspecified): the TGI is 91.9 µM in test [1]; 57.3 µM in [2]; > 100 µM in test [3]; > 100 µM in test [4]; 31.8 µM in test [5]; > 100 µM in [6]. Also, the TGI in test [7] is > 100 µM; in test [8], 68.5 µM; in test [9], 48.6 µM; in test [10], 94.3 µM.
Regarding `O=C(O)C1C(C(=O)O)C(C(=O)O)C1C(=O)O` (stereo unspecified), the TGI in [1], in test [2], in [3], in test [4], in test [5] and in test [6] was > 100 µM each time. Besides, the TGI in [7], in test [8], in test [9] and in test [10] was > 100 µM each time.
In the case of `Cc1cc(C2CCCCC2)n(O)c(=O)c1`, the GI50 in test [1] is 1.96 µM; in [3], 6.13 µM; in test [4] it was 2.4 µM; in test [5], 1.02 µM; in test [6] it was 1.34 µM; in test [7], 3.38 µM. The results for the GI50 in test [8], in test [9] and in test [10] were 2.66 µM, 0.873 µM and 9.91 µM, respectively. The TGI is > 100 µM and 58.1 µM in [1]; > 100 µM in test [2]; > 100 µM in [3]; > 100 µM in [4]; > 100 µM in test [5]; > 100 µM in test [6]. Moreover, the TGI in test [7] is > 100 µM; in test [8], > 100 µM and 49.4 µM; in test [9] it was 8.85 µM and 18.6 µM; in test [10], > 100 µM.
Turning to `Cc1[nH]c(N=Nc2ccccc2)nc1N=Nc1ccccc1`, the GI50 in test [1] was 1.66 µM; in test [2], 2.32 µM; in test [3], 6.62 µM; in test [4] it was 3.05 µM; in [5], 3.12 µM; in test [6], 2.86 µM. Besides, the GI50 is 4.7 µM in test [7], 2.27 µM in test [8], 1.83 µM in [9] and 1.85 µM in [10]. Also, the TGI was 12.5 µM in [1]; > 41.7 µM in [2]; > 82.2 µM in [3]; 29.9 µM in test [4]; 27.6 µM in test [5]; 12 µM in test [6]. Moreover, the TGI is > 56.7 µM in test [7], 8.06 µM in test [8], 4.34 µM in test [9] and > 32.9 µM in test [10].
Turning to `Cc1ccc(N=NC(C(=O)c2ccccc2)C(=O)c2ccccc2)cc1`, the TGI in test [1] is 93.4 µM; in test [2], 63 µM; in [3], 58 µM; in test [4], > 100 µM; in [5], 65.6 µM; in test [6], > 100 µM. For the same molecule, the TGI in test [7] is > 100 µM; in test [8], > 100 µM; in test [9] it was 60.8 µM; in test [10], > 100 µM.
Consider `CCCCCCCCCCCCCCCCOP(=O)(O)Oc1ccc(/C=C\c2ccc(OP(=O)(O)OCCCCCCCCCCCCCCCC)cc2)cc1`, for which the TGI is 80.8 µM in test [1]; > 100 µM in test [2]; > 100 µM in test [3]; > 100 µM in test [4]; > 100 µM in [5]; > 100 µM in test [6]. In addition, the TGI in test [7] was > 100 µM; in test [8], > 100 µM; in test [9], > 100 µM; in test [10] it was 72.4 µM.
